This is an account of results in patent US20110008433A1, “Herbal Composition for Osteoarthritis” (priority 2009, published 2011).

Assay [1] can be described thus: Free radical scavenger, SOD mimetic activity (xanthine/xanthine oxidase, NBT). The assay is classed as biochemical. As to the method: SO101C or vehicle was incubated with 0.12 mM xanthine, 6 mU xanthine oxidase, 27 μM nitroblue tetrazolium (NBT), 0.11 mM EDTA, 0.005% bovine serum albumin and Na2CO3 at pH 10.5 at 25° C. for 20 minutes. Conversion of xanthine to uric acid +O^−+NBT to formazan was then determined by measurement of absorbance at 595 nm and percent inhibition by superoxide dismutase or test compound was calculated.

Assay [2] deals with T1, MMP-2 (Homo sapiens, UniProt P08253).
T1 construct: Serum free culture supernatant of confluent human dermal fibroblast was used as the source of MMP; endogenous in cells; host or cells: human dermal fibroblasts, serum-free culture supernatant
T1 sequence (P08253 110-660): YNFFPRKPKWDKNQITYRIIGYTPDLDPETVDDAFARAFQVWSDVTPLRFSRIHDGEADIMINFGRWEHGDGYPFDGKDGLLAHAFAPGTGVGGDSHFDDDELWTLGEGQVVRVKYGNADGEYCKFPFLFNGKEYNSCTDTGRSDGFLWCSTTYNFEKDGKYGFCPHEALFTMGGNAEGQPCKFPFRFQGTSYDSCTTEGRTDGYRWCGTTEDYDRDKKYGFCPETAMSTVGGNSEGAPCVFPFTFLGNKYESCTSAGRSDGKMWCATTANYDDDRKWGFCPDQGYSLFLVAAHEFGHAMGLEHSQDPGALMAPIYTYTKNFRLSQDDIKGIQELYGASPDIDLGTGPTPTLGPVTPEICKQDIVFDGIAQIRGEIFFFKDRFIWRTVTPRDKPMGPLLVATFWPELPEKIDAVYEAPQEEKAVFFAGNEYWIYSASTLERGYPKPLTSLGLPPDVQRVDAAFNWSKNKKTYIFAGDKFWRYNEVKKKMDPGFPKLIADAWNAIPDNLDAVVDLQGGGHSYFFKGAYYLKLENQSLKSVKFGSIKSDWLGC
As to the kind of experiment: Inhibition of MMP-2 activity in cell free system, gelatin zymography. The settings on record: for MMP-2 activity (% of control): 24 hours. The assay is classed as biochemical. As to the method:
Serum free culture supernatant of confluent human dermal fibroblast was used as the source of MMP. Equal amount of the supernatant treated with equal volume of 2 fold concentration of SDS sample buffer without reducing agent was subjected to electrophoresis The samples were loaded into each well of a 10% SDS polyacrylamide gel containing 1 mg/ml of bovine gelatin (Sigma), and run at 20 mA in ice bath by a BioRad Mini Protean gel apparatus. After dye front reached the bottom of the gel, the gel was washed three times, 15 minutes each, with 2.5% Triton X-100. Then, the gel was sliced and incubated in developing buffer (50 mM Tris-HCl, pH7.6, 10 mM CaCl2, 50 mM NaCl, 0.05% Brij35) containing SO101C or EDTA or vehicle at 37° C. for 24 hours. The gel was stained with 0.1% Coomassie blue R250 (Sigma) in 40% methanol and 10% acetic acid, and destained in 30% methanol and 7% acetic acid. The enzyme digested clear bands were visualized in the blue background. The comparison of the enzymatic activities (clear band width) was analyzed by Image J (NIH).

Assay [3] relates to chondrocytes. Put plainly: ALP, collagen and GAGs synthesis in chondrocytes in micromass culture (staining), without or with H2O2. The assay is classed as cell-based, Human. The settings on record: 1 mM; same experimental conditions. How it is done:
Human articular cartilage was obtained from patients who received total joint replacement with consent. The cartilage was digested with 1 mg/ml of Class 2 and Class 4 bacterial collagenase (Worthington Chemical, Freehold, N.J.) in DMEM containing 10% fetal calf serum (FCS) and 25 μg/ml Gentamicin (C-DMEM, Gibco, Grand Island, […]) at 37° C. overnight. […] Ten μl of 1×10^7 cells/ml in C-DMEM was seeded into the center of each well of 48 multiwell culture dish (Nunc, Roskilde, Danmark). […] The media were changed twice a week for two weeks. At the end of the incubation, the media were changed with fresh DMEM. Twenty-four hours later, the media were collected for MMP zymography study and cells were fixed and stained for alkaline phosphatase (ALP), collagen or glycosaminoglycan using Naphthol AS-MX phosphate/Fast red, Sirius red, or Safranin O (Sigma), respectively.

The test system of assay [4] is Human bone marrow mesenchymal stem cells. As to the kind of experiment: ALP, collagen and GAGs synthesis in bone marrow mesenchymal stem cells in micromass culture (staining). The assay is classed as cell-based. To be noted: 1 mM; same experimental conditions. As to the method:
Human bone marrow mesenchymal stem cells were obtained from patients receiving total joint replacement with consent. […] Ten μl of 1×10^7 cells/ml in C-DMEM was seeded into the center of each well of 48 multiwell culture dish (Nunc, Roskilde, Danmark). […] The media were changed twice a week for two weeks. At the end of the incubation, cells were fixed and stained for alkaline phosphatase (ALP), collagen or glycosaminoglycan using Naphthol AS-MX phosphate/Fast red, Sirius red, or Safranin O (Sigma), respectively.

Assay [5] has as its system MMP-2. Put plainly: MMP-2 activities of treated chondrocyte culture supernatants, gelatin zymography. The assay is classed as cell-based, Human. The settings on record: 1 mM; chondrocytes treated 2 weeks.
Method: Ten μl of 1×10^7 cells/ml in C-DMEM was seeded into the center of each well of 48 multiwell culture dish (Nunc, Roskilde, Danmark). Two hours later, 250 μl of F12/DMEM containing 5% FCS, 6.25 μg/ml bovine insulin, 25 μg/ml ascorbic acid and 100 nM Dexamethasone (induction medium) with various concentrations of herbal composition or glucosamine (Sigma) was added. The media were changed twice a week for two weeks. At the end of the incubation, the media were changed with fresh DMEM.
Equal amount of protein of each culture medium was mixed with equal volume of 2 fold concentration of non-reducing SDS sample buffer, and incubated at room temperature for two hours for sample to denature. The samples were loaded into each well of a 10% SDS polyacrylamide gel containing 1 mg/ml of bovine gelatin (Sigma), and run at 20 mA in ice bath by a BioRad Mini Protean gel apparatus. After dye front reached the bottom of the gel, the gel was washed three times, 15 minutes each, with 2.5% Triton X-100. Then, the gel was renatured in developing buffer (50 mM Tris-HCl, pH7.6, 10 mM CaCl2, 50 mM NaCl, 0.05% Brij35) at 37° C. for 24 hours. The gel was stained with 0.1% Coomassie blue R250 (Sigma) in 40% methanol and 10% acetic acid, and destained in 30% methanol and 7% acetic acid. […] The comparison of the enzymatic activities (clear band width) was analyzed by Image J (NIH).
The test system of assay [6] is human chondrocytes. Put plainly: Gene expression of chondrocytes (RT-PCR, normalized by β-Actin). The assay is classed as cell-based. The settings on record: 2 weeks. How it is done: Reverse transcription was carried out at 37° C. for one hour by a programmable thermal controller (PTC-100, MJ Research, Inc., Watertown, Mass.). Reaction was terminated by raising the temperature to 93° C. for five minutes. PCR was performed in a thermal controller (PTC-100, MJ Research, Inc., Watertown, Mass.) with master mix (HotStarTaq DNA polymerase, Qiagen) at initial denaturation at 95° C. for 15 minutes, followed by 25 cycles of 94° C. for 1 minute, 58° C. for 40 seconds, and 72° C. for 40 seconds. The final cycle extended 72° C. for 10 minutes. The PCR products accompanied by 100 bp ET marker were separated by 1.2% agarose gel, stained with ethidium bromide and visualized under UV light. A Polaroid picture was taken by Foto/Phoresis UV documentation system (Fotodyne Inc.). Beta-actin expression under the same experimental conditions was used as a reference to normalize the expressions. The comparison of bend width of PCR was analyzed by Image J (NIH) after normalized by the expression of β-Actin.

Assay [7] in a line: 2,2-diphenyl-1-picrylhydrazyl (DPPH) radical scavenging activity. The settings on record: for Absorbance at 517 nm, Sample 1 to 3: 30 minutes, single samples; for Absorbance at 517 nm, Average: control 0.963. As to the method:
SO101C, vitamin C or vitamin E at various concentrations were incubated with 0.4 mM 2,2-diphenyl-1-picrylhydrazyl (DPPH, Sigma) in ethanol at room temperature for 30 minutes. Absorbance at 517 nm was measured by a spectrophotometer.
Background: DPPH is a stable violet radical that fades when it is reduced.

Assay [8] deals with T2, MMP-3 (stromelysin-1, human recombinant catalytic domain) (Homo sapiens, UniProt P08254).
T2 construct: MMP-3 (stromelysin-1, human recombinant catalytic domain from Calbiochem Cat. 444217); purchased Calbiochem 444217
As to the kind of experiment: Inhibition of MMP-3 enzyme activity, fluorogenic substrate. In kind it is biochemical. As to the method:
(§1) MMP-3 (stromelysin-1, human recombinant catalytic domain from Calbiochem Cat. 444217) was activated by p-aminophenylmercuric acetate for 60 minutes at 37° C. After preincubation of SO101C or vehicle with the activated enzyme (5 nM) in a reaction mixture containing 50 mM MOPS (pH 7.2), 10 mM CaCl2 and 10 μM ZnCl2 at 37° C. for 60 minutes, the reaction was initiated by addition of 4 μM (7-methoxycoumarin-4-yl)acetyl-Pro-Leu-Gly-Leu-N-3-(2,4-dinitrophenyl)-L-2,3-diaminopropinoyl-Ala-Arg-NH2 and incubated for a further 120 minutes at 37° C. Enzyme activity was determined spectrofluorometrically by measuring the formation of fluorescent (7-methoxycoumarin-4-yl)acetyl-Pro-Leu-Gly.

The target of assay [9] is T3, MMP-13 (human recombinant) (Homo sapiens, UniProt P45452).
T3 construct: purchased Calbiochem 444248; host or cells: Sf9
As to the kind of experiment: Inhibition of MMP-13 enzyme activity, fluorogenic substrate. In kind it is biochemical. As to the method: as §1, with “MMP-13 proenzyme (human recombinant, expressed in Sf9 cell,” for “MMP-3 (stromelysin-1, human recombinant catalytic domain from”, “444248)” for “444217)”, “with the activated enzyme (0.5” for “(5”, “ZnCl2 for 60 minutes” for “ZnCl2”, “C.,” for “C. for 60 minutes,”

Assay [10] in a line: Anti-lipid peroxidation activity (malondialdehyde/thiobarbituric acid). In kind it is biochemical, Mouse. The settings on record: for OD (A532-A600): control (0) 0.973. As to the method:
Mouse brain KCl extract was used as the source of lipid. Brain extract was incubated with 1 mM FeSO4 and 0.1 mM vitamin C at 37° C. for 90 minutes. The malondialdehyde formed by peroxyl radical was reacted with thiobarbituric acid to form an adduct that absorbed at 532 nm after centrifugation to discard TCA precipitation.

Several values for one entry are separate records, joined by “and”; a condition that tells them apart may be missing. Equal entries are not always repeated.

T2 sequence (P08254 100-272 limits assumed): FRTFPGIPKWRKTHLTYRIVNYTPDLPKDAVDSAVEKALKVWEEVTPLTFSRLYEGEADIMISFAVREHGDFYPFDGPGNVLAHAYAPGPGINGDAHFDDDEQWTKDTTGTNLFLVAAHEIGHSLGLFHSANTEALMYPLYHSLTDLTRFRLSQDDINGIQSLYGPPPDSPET

As to `O=C(O[C@@H]1Cc2c(O)cc(O)cc2O[C@@H]1c1ccc(O)c(O)c1)c1cc(O)c(O)c(O)c1` [(−)-Epicatechin gallate], in [1] (6.1 μM), the “Inhibition (%)” value is recorded as 50%. The IC50 in [1] (read-out: Concentration giving 50 % inhibition (SOD mimetic assay)) is 6100 nM.

As to `O=C(O)CN(CCN(CC(=O)O)CC(=O)O)CC(=O)O` [EDTA], in [2], the “inhibition of MMP-2 activity in cell free system (in words)” value is reported as “showed dose dependent inhibition”. Besides, the “MMP-2 activity (% of control)” value in [2] (0.1 mM) is 46.6 % of control; in assay [2] (0.3 mM) it was 30.5 % of control.

Consider `N[C@H]1C(O)O[C@H](CO)[C@@H](O)[C@@H]1O` (stereo partly drawn) [Glucosamine, glucosamine], for which the “effects on ALP, collagen and GAGs in chondrocytes (in words)” value in [3] is “did not show significant effects”. Also, the “effect on ALP, collagen and GAGs in bone marrow mesenchymal stem cells (in words)” value in assay [4] is reported as “did not show significant effect”. In [5], the “MMP-2 activity (% of control) Active form (66K)” value is 118.2 % of control and the “MMP-2 activity (% of control) Latent form (72K)” value is reported as 92.5 % of control. For the same molecule, in assay [6] (1 mM), the “Gene expression (% of control) ALP” value is 180.0 % of control, the “Gene expression (% of control) Aggrecan” value is 133.7 % of control, the “Gene expression (% of control) Aggrecanase” value was 130.9 % of control and the “Gene expression (% of control) BMP-2” value is reported as 173.4 % of control. In assay [6] (1 mM), the “Gene expression (% of control) Col II” value is recorded as 162.4 % of control and the “Gene expression (% of control) TGF-β” value is reported as 120.9 % of control. Besides, in assay [6] (SO101C 0.01 mg/ml or glucosamine 1 mM), the “expression of cartilage metabolism related genes (in words)” value is “stimulated the expression of most of the cartilage metabolism related genes”.

Regarding `O=C1O[C@H]([C@@H](O)CO)C(O)=C1O` [Vitamin C, vitamin C], the “Inhibition (%)” value turned out to be 19.5% in assay [7] (0.01 mM), 64.8% in [7] (0.03 mM) and 92.5% in [7] (0.1 mM). The “Absorbance at 517 nm, Sample 1 to 3” value was 0.753 and 0.790 and 0.781 in assay [7] (0.01 mM); 0.321 and 0.362 and 0.333 in assay [7] (0.03 mM); 0.068 and 0.079 in [7] (0.1 mM). Further, the “Absorbance at 517 nm, Average” value in assay [7] (0.01 mM) came to 0.775; in assay [7] (0.03 mM), 0.339; in assay [7] (0.1 mM) it was 0.072.

For “TIMP-1: reference agent in the MMP-3 and MMP-13 inhibition tables”, the “Inhibition (%)” value in assay [8] (0.0076 μM) and in assay [9] (0.0068 μM) was 50% each time. In addition, the IC50 in [8] (read-out: Concentration giving 50 % inhibition of MMP-3) was 7.6 nM; in [9] (read-out: Concentration giving 50 % inhibition of MMP-13) it was 6.8 nM.

Consider vitamin E, for which the “Inhibition (%)” value is 30.6% in assay [7] (0.01 mM), 76.9% in assay [7] (0.03 mM) and 77.5% in assay [7] (0.1 mM). The “Absorbance at 517 nm, Sample 1 to 3” value in [7] (0.01 mM) was 0.647 and 0.688 and 0.668; in assay [7] (0.03 mM), 0.213 and 0.208 and 0.245; in assay [7] (0.1 mM) it was 0.204 and 0.241 and 0.205. Besides, the “Absorbance at 517 nm, Average” value in [7] (0.01 mM) was 0.668; in assay [7] (0.03 mM) it was 0.222; in assay [7] (0.1 mM), 0.217. Further, the “inhibition of lipid peroxidation (in words)” value in assay [10] was “dose dependently inhibited lipid peroxidation”. Besides, the results for the “OD (A532-A600)” value in assay [10] (0.003 mM), in [10] (0.01 mM) and in [10] (0.03 mM) were 0.844, 0.697 and 0.526, respectively.
